test system: Aspergillus oryzae; test: Antimicrobial activity against Aspergillus oryzae MTCC 3782 at 20 ug after 48 hr by streak plate method; assay type: functional; conditions: MTCC 3782, 48 h, read-out: IZ

SMILES | zone of inhibition at 20 µg/disc
O=C1c2ccccc2C(=O)N1CNc1ccccc1 | 7 mm
O=C1CCC(=O)N1C(Nc1ccccn1)c1ccccc1 (centres undefined) | 12 mm
O=C1CCC(=O)N1C(Nc1ccccc1)c1ccccc1 (centres undefined) | 3 mm

test system: Salmonella typhi; test: Antimicrobial activity against Salmonella enterica subsp. enterica serovar Typhi MTCC 3917 at 20 ug after 24 hr by streak plate method; assay type: functional; conditions: MTCC 3917, 24 h, read-out: IZ

SMILES | zone of inhibition at 20 µg/disc
O=C1c2ccccc2C(=O)N1CNc1ccccc1 | 3 mm
Oc1cc2ccccc2cc1Cn1cccc1 | 22 mm

test system: Radical scavenging activity; test: Antioxidant activity assessed as DPPH radical scavenging activity; assay type: functional; conditions: not given

SMILES | Activity
O=C1c2ccccc2C(=O)N1CNc1ccccc1 | Dose-dependent effect
O=C1CCC(=O)N1C(Nc1ccccn1)c1ccccc1 (centres undefined) | Dose-dependent effect
Oc1cc2ccccc2cc1Cn1cccc1 | Dose-dependent effect
O=C1CCC(=O)N1C(Nc1ccccc1)c1ccccc1 (centres undefined) | Dose-dependent effect

test system: not listed separately; test: Antioxidant activity assessed as inhibition of linoleic acid peroxidation at 100 ug by FTC method; assay type: functional; conditions: not given

SMILES | inhibition
O=C1c2ccccc2C(=O)N1CNc1ccccc1 | 15%
O=C1CCC(=O)N1C(Nc1ccccn1)c1ccccc1 (centres undefined) | 19%
Oc1cc2ccccc2cc1Cn1cccc1 | 17%
O=C1CCC(=O)N1C(Nc1ccccc1)c1ccccc1 (centres undefined) | 20%

test system: Bacillus subtilis; test: Antimicrobial activity against Bacillus subtilis MTCC 4905 at 40 ug after 24 hr by streak plate method; assay type: functional; conditions: MTCC 4905, 24 h, read-out: IZ

SMILES | zone of inhibition at 40 µg/disc
O=C1c2ccccc2C(=O)N1CNc1ccccc1 | 9 mm
O=C1CCC(=O)N1C(Nc1ccccn1)c1ccccc1 (centres undefined) | 7 mm
Oc1cc2ccccc2cc1Cn1cccc1 | 14 mm
O=C1CCC(=O)N1C(Nc1ccccc1)c1ccccc1 (centres undefined) | 10 mm

test system: not listed separately; test: Antioxidant activity assessed as inhibition of linoleic acid peroxidation at 125 ug by FTC method; assay type: functional; conditions: not given

SMILES | inhibition
O=C1c2ccccc2C(=O)N1CNc1ccccc1 | 16%
O=C1CCC(=O)N1C(Nc1ccccn1)c1ccccc1 (centres undefined) | 21%
Oc1cc2ccccc2cc1Cn1cccc1 | 19%
O=C1CCC(=O)N1C(Nc1ccccc1)c1ccccc1 (centres undefined) | 22%

test system: Radical scavenging activity; test: Antioxidant activity assessed as DPPH radical scavenging activity at 25 ug; assay type: functional; conditions: not given

SMILES | Activity
O=C1c2ccccc2C(=O)N1CNc1ccccc1 | 15%
O=C1CCC(=O)N1C(Nc1ccccn1)c1ccccc1 (centres undefined) | 16%
Oc1cc2ccccc2cc1Cn1cccc1 | 32%
O=C1CCC(=O)N1C(Nc1ccccc1)c1ccccc1 (centres undefined) | 9%

test system: not listed separately; test: Antioxidant activity assessed as inhibition of linoleic acid peroxidation at 75 ug by FTC method; assay type: functional; conditions: not given

SMILES | inhibition
O=C1c2ccccc2C(=O)N1CNc1ccccc1 | 15.6%
O=C1CCC(=O)N1C(Nc1ccccn1)c1ccccc1 (centres undefined) | 18%
Oc1cc2ccccc2cc1Cn1cccc1 | 16.2%
O=C1CCC(=O)N1C(Nc1ccccc1)c1ccccc1 (centres undefined) | 19%

test system: Radical scavenging activity; test: Antioxidant activity assessed as DPPH radical scavenging activity at 75 ug; assay type: functional; conditions: not given

SMILES | Activity
O=C1c2ccccc2C(=O)N1CNc1ccccc1 | 20%
O=C1CCC(=O)N1C(Nc1ccccn1)c1ccccc1 (centres undefined) | 20%
Oc1cc2ccccc2cc1Cn1cccc1 | 35%
O=C1CCC(=O)N1C(Nc1ccccc1)c1ccccc1 (centres undefined) | 17%

test system: not listed separately; test: Antioxidant activity assessed as inhibition of linoleic acid peroxidation at 25 ug by FTC method; assay type: functional; conditions: not given

SMILES | inhibition
O=C1c2ccccc2C(=O)N1CNc1ccccc1 | 11%
O=C1CCC(=O)N1C(Nc1ccccn1)c1ccccc1 (centres undefined) | 15%
Oc1cc2ccccc2cc1Cn1cccc1 | 10%
O=C1CCC(=O)N1C(Nc1ccccc1)c1ccccc1 (centres undefined) | 16%

test system: Escherichia coli; test: Antimicrobial activity against Escherichia coli MTCC 3261 at 40 ug after 24 hr by streak plate method; assay type: functional; conditions: MTCC 3261, 24 h, read-out: IZ

SMILES | zone of inhibition at 40 µg/disc
O=C1c2ccccc2C(=O)N1CNc1ccccc1 | 3 mm
O=C1CCC(=O)N1C(Nc1ccccn1)c1ccccc1 (centres undefined) | 4 mm
Oc1cc2ccccc2cc1Cn1cccc1 | 4 mm
O=C1CCC(=O)N1C(Nc1ccccc1)c1ccccc1 (centres undefined) | 2 mm

test system: Escherichia coli; test: Antimicrobial activity against Escherichia coli MTCC 3261 at 60 ug after 24 hr by streak plate method; assay type: functional; conditions: MTCC 3261, 24 h, read-out: IZ

SMILES | zone of inhibition at 60 µg/disc
O=C1c2ccccc2C(=O)N1CNc1ccccc1 | 8 mm
O=C1CCC(=O)N1C(Nc1ccccn1)c1ccccc1 (centres undefined) | 7 mm
Oc1cc2ccccc2cc1Cn1cccc1 | 14 mm
O=C1CCC(=O)N1C(Nc1ccccc1)c1ccccc1 (centres undefined) | 16 mm

test system: Aspergillus oryzae; test: Antimicrobial activity against Aspergillus oryzae MTCC 3782 at 60 ug after 48 hr by streak plate method; assay type: functional; conditions: MTCC 3782, 48 h, read-out: IZ

SMILES | zone of inhibition at 60 µg/disc
O=C1c2ccccc2C(=O)N1CNc1ccccc1 | 4 mm
O=C1CCC(=O)N1C(Nc1ccccn1)c1ccccc1 (centres undefined) | 9 mm
Oc1cc2ccccc2cc1Cn1cccc1 | 14 mm
O=C1CCC(=O)N1C(Nc1ccccc1)c1ccccc1 (centres undefined) | 15 mm

test system: Radical scavenging activity; test: Antioxidant activity assessed as DPPH radical scavenging activity at 50 ug; assay type: functional; conditions: not given

SMILES | Activity
O=C1c2ccccc2C(=O)N1CNc1ccccc1 | 19%
O=C1CCC(=O)N1C(Nc1ccccn1)c1ccccc1 (centres undefined) | 19%
Oc1cc2ccccc2cc1Cn1cccc1 | 33%
O=C1CCC(=O)N1C(Nc1ccccc1)c1ccccc1 (centres undefined) | 14%

test system: not listed separately; test: Antioxidant activity assessed as inhibition of linoleic acid peroxidation by FTC method; assay type: functional; conditions: not given

SMILES | inhibition
O=C1c2ccccc2C(=O)N1CNc1ccccc1 | Dose-dependent effect
O=C1CCC(=O)N1C(Nc1ccccn1)c1ccccc1 (centres undefined) | Dose-dependent effect
Oc1cc2ccccc2cc1Cn1cccc1 | Dose-dependent effect
O=C1CCC(=O)N1C(Nc1ccccc1)c1ccccc1 (centres undefined) | Dose-dependent effect

test system: Salmonella typhi; test: Antimicrobial activity against Salmonella enterica subsp. enterica serovar Typhi MTCC 3917 at 40 ug after 24 hr by streak plate method; assay type: functional; conditions: MTCC 3917, 24 h, read-out: IZ

SMILES | zone of inhibition at 40 µg/disc
O=C1c2ccccc2C(=O)N1CNc1ccccc1 | 5 mm
O=C1CCC(=O)N1C(Nc1ccccn1)c1ccccc1 (centres undefined) | 1 mm
Oc1cc2ccccc2cc1Cn1cccc1 | 22 mm
O=C1CCC(=O)N1C(Nc1ccccc1)c1ccccc1 (centres undefined) | 6 mm

test system: Bacillus subtilis; test: Antimicrobial activity against Bacillus subtilis MTCC 4905 at 60 ug after 24 hr by streak plate method; assay type: functional; conditions: MTCC 4905, 24 h, read-out: IZ

SMILES | zone of inhibition at 60 µg/disc
O=C1c2ccccc2C(=O)N1CNc1ccccc1 | 14 mm
O=C1CCC(=O)N1C(Nc1ccccn1)c1ccccc1 (centres undefined) | 12 mm
Oc1cc2ccccc2cc1Cn1cccc1 | 16 mm
O=C1CCC(=O)N1C(Nc1ccccc1)c1ccccc1 (centres undefined) | 17 mm

test system: not listed separately; test: Antioxidant activity assessed as inhibition of linoleic acid peroxidation at 50 ug by FTC method; assay type: functional; conditions: not given

SMILES | inhibition
O=C1c2ccccc2C(=O)N1CNc1ccccc1 | 13%
O=C1CCC(=O)N1C(Nc1ccccn1)c1ccccc1 (centres undefined) | 17%
Oc1cc2ccccc2cc1Cn1cccc1 | 13%
O=C1CCC(=O)N1C(Nc1ccccc1)c1ccccc1 (centres undefined) | 17%

test system: Radical scavenging activity; test: Antioxidant activity assessed as DPPH radical scavenging activity at 125 ug; assay type: functional; conditions: not given

SMILES | Activity
O=C1c2ccccc2C(=O)N1CNc1ccccc1 | 24%
O=C1CCC(=O)N1C(Nc1ccccn1)c1ccccc1 (centres undefined) | 25%
Oc1cc2ccccc2cc1Cn1cccc1 | 38%
O=C1CCC(=O)N1C(Nc1ccccc1)c1ccccc1 (centres undefined) | 25%

test system: Radical scavenging activity; test: Antioxidant activity assessed as DPPH radical scavenging activity at 100 ug; assay type: functional; conditions: not given

SMILES | Activity
O=C1c2ccccc2C(=O)N1CNc1ccccc1 | 22%
O=C1CCC(=O)N1C(Nc1ccccn1)c1ccccc1 (centres undefined) | 23%
Oc1cc2ccccc2cc1Cn1cccc1 | 36%
O=C1CCC(=O)N1C(Nc1ccccc1)c1ccccc1 (centres undefined) | 18%

test system: Aspergillus oryzae; test: Antimicrobial activity against Aspergillus oryzae MTCC 3782 at 40 ug after 48 hr by streak plate method; assay type: functional; conditions: MTCC 3782, 48 h, read-out: IZ

SMILES | zone of inhibition at 40 µg/disc
O=C1c2ccccc2C(=O)N1CNc1ccccc1 | 7 mm
O=C1CCC(=O)N1C(Nc1ccccn1)c1ccccc1 (centres undefined) | 10 mm
Oc1cc2ccccc2cc1Cn1cccc1 | 10 mm
O=C1CCC(=O)N1C(Nc1ccccc1)c1ccccc1 (centres undefined) | 12 mm

test system: Salmonella typhi; test: Antimicrobial activity against Salmonella enterica subsp. enterica serovar Typhi MTCC 3917 at 60 ug after 24 hr by streak plate method; assay type: functional; conditions: MTCC 3917, 24 h, read-out: IZ

SMILES | zone of inhibition at 60 µg/disc
O=C1c2ccccc2C(=O)N1CNc1ccccc1 | 5 mm
O=C1CCC(=O)N1C(Nc1ccccn1)c1ccccc1 (centres undefined) | 6 mm
Oc1cc2ccccc2cc1Cn1cccc1 | 23 mm
O=C1CCC(=O)N1C(Nc1ccccc1)c1ccccc1 (centres undefined) | 11 mm

test system: Aspergillus fumigatus; test: Antimicrobial activity against Aspergillus fumigatus MTCC 6594 at 60 ug after 48 hr by streak plate method; assay type: functional; conditions: MTCC 6594, 48 h, read-out: IZ

SMILES | zone of inhibition at 60 µg/disc
O=C1c2ccccc2C(=O)N1CNc1ccccc1 | 2 mm
O=C1CCC(=O)N1C(Nc1ccccn1)c1ccccc1 (centres undefined) | 3 mm
Oc1cc2ccccc2cc1Cn1cccc1 | 3 mm
O=C1CCC(=O)N1C(Nc1ccccc1)c1ccccc1 (centres undefined) | 6 mm

From ChEMBL document CHEMBL3044727, “Syntheses, spectral, crystallographic, antimicrobial, and antioxidant studies of few Mannich bases” (2012)
